Source: patent publication US6750348B1, “Chemokine receptor binding heterocyclic compounds” (AnorMED, Inc., priority 1999, dated 2004)
Like-named read-outs stand apart in the source and are kept apart here. Values belong to the molecule of their own block, whether it stands above or below them.

What was measured:
[1] = test system: SDF-1α induced Ca flux in SUP-T1 cells; test: Inhibition of SDF-1α induced Ca flux in SUP-T1 cells (FLIPR); type: cell-based; details: Homo sapiens, read-out: inhibited SDF-1α induced Ca flux; for inhibition at 20 µg/mL: at 20 μg/mL
Protocol: Loading dye: Fluo-3, AM (Molecular Probes F-1241) is dissolved in anhydrous DMSO and stored frozen in aliquots. To increase the solubility of the dye in the loading medium, 10% (w/v) pluronic acid (Molecular Probes F-127) is added to the Fluo-3 stock solution immediately before use.
HBSS+20 mM Hepes buffer+0.2% BSA, pH 7.4. HBSS 10× [(w/o phenol red and sodium bicarbonate (Gibco 14 065-049)]; Hepes buffer 1M (Gibco 15 630-056), BSA (Sigma A3675). The flux buffer is vacuum-filtered and stored refrigerated for a maximum of 5 days. Before use in the experiment, the buffer is warmed at 37° C. in a waterbath.
The test compounds were diluted in flux buffer and added to 4 wells of a black microplate (4 parallel measurements per compound).
The chemokines are diluted in flux buffer to concentrations that are 4-fold higher than the desired concentrations required for stimulation of the cells (i.e. 2.5 nM for SDF-1α and 0.6 nM for RANTES). The chemokines were added to untreated 96-well Sero well compound plates (International Medical, Sterilin code 611F96). In the negative control well's (baseline monitoring), flux buffer is added instead of chemokine. As a positive control to check for dye loading efficiency, 20 μM digitonin (final concentration) was also included. The agonist plate was incubated in the FLIPR (37° C.) for 15-30 min.
SUP-T1 cells were centrifuged at room temperature (RT) and re-suspended in loading medium (RPMI-1640 containing 2% FBS and 4 μM Fluo-3, AM). The cells were incubate at room temperature for 45 min. then washed twice in flux buffer then incubated in flux buffer at room temperature for 10 min. The cells were centrifuged and re-suspended in flux buffer at a density of 3×10^6 cells per mL. […] The microplate is then gently centrifuged at room temperature. Homogeneous spreading of the cells on the bottom of the microplate wells was then confirmed with a microscope and the microplate was incubated in the FLIPR (37° C.) for 10 min. prior to testing.
The FLIPR settings (camera exposure time and laser power) are adjusted to obtain initial fluorescence values between 8,000 and 10,000 units. After monitoring a 20 second-baseline, the agonist (chemokine) (50 μL) is added by automatic pipettor with black pipette tips. Fluorescence is measured simultaneously in all wells of the microplate every 2 seconds (first 2 min) and thereafter every 6 seconds (additional 2 min). The average ca-flux measured in each set of 4 identical wells (one test compound) was calculated by the FLIPR software.
The compounds of the current invention were tested for inhibition of SDF-1α induced Ca flux in SUP-T1 cells using the method described above.

HIV-1 NL4.3 or IIIB = test: Inhibition of HIV-1 (NL4.3 or IIIB) replication in MT-4 cells (MTT); type: cell-based; details: Human immunodeficiency virus 1, IIIB
Protocol: Compounds were tested for their ability to inhibit HIV-1 replication in MT-4 cells or PBMC's (peripheral blood mononucleocytes) using published procedures (for example, see: Labrosse et al. J. Virol. 1998, 6381-6388; Simmons et al. J. Virol. 1998, 8453-8457; Donzella et al. Nature Medicine 1998, 72-77; Schols et al. J. Exp. Med. 1997, 1383-1388; De Clercq et al. Antiviral Res. 1997, 147-156; and Bridger et al. U.S. patent application Ser. No. 09/111,895). In addition to the above references, experimental methods for performing anti-viral assays can also be found in: Bridger et al. J. Med. Chem. 1995, 38, 366-378; Bridger et al. J. Med. Chem. 1996, 39, 109-119; Bridger et al. U.S. Pat. No. 5,698,546; Bridger et al. U.S. Pat. No. 5,583,131; Bridger et al. U.S. Pat. No. 5,817,807; De Clercq et al. Antimicrob. Agents and Chemother. 1994, 38, 668-674.
1. The HIV-1 strains NL4.3 and IIIB are T-tropic strains that exclusively use CXCR4 as the co-receptor for entry into cells. MT-4 Cells express CXCR4 but not CCR5.
Inhibition of HIV-1 NL4.3 (or IIIB) replication assays were performed as previously described (Bridger et al. J. Med. Chem. 1999, 42, 3971-3981; De Clercq et al. Proc. Natl. Acad. Sci, 1992, 89, 5286-5290; De Clercq et al. Antimicrob. Agents Chemother. 1994, 38, 668-674; Bridger et al. J. Med. Chem. 1995, 38, 366-378). Anti-HIV activity and cytotoxicity measurements were carried out in parallel. They were based on the viability of MT-4 cells that had been infected with HIV in the presence of various concentrations of the test compounds. After the MT-4 cells were allowed to proliferate for 5 days, the number of viable cells was quantified by a tetrazolium-based calorimetric 3-(4,5-dimethylthiazol-2-yl)-2,5-diphenyltetrazolium bromide (MTT) procedure in 96-well microtrays. In all of these assays, viral input (viral multiplicity of infection, MOI) was 0.01, or 100 times the 50% cell culture infective dose (CCID50). The EC50 was defined as the concentration required to protect 50% of the virus-infected cells against viral cytopathicity.

[2] = MT4, read-out: EC50, inhibition of HIV-1 NLA.3 or IIIB replication

SMILES: c1ccc(CNCc2ccc(CNc3cccc4c3NCCC4)cc2)nc1 [Example 9, N-(2-pyridinylmethyl)-N′-(1,2,3,4-tetrahydro-8-quinolinyl)-1,4-benzenedimethanamine]
- inhibition at 20 µg/mL [1]: > 20%

- EC50 (HIV-1 NL4.3 or IIIB; MT4, read-out: EC50, inhibition of HIV-1 NL4.3 or IIIB replication): < 20 µg/mL
SMILES: c1ccc(CNCc2ccc(CN(Cc3ncc[nH]3)C3CCCc4cccnc43)cc2)nc1 (centres unmarked) [Example 15, N-(2-pyridinylmethyl)-N′-(1H-imidazol-2-ylmethyl)-N′-(5,6,7,8-tetrahydro-8-quinolinyl)-1,4-benzenedimethanamine]
- inhibition at 20 µg/mL [1]: > 20%

SMILES: c1ccc(CNCc2ccc(CN(Cc3ccc[nH]3)C3CCCc4cccnc43)cc2)nc1 (centres unmarked) [Example 26, N-(2-pyridinylmethyl)-N′-[2-pyrrolylmethyl]-N′-(5,6,7,8-tetrahydro-8-quinolinyl)-1,4-benzenedimethanamine]
- inhibition at 20 µg/mL [1]: > 20%

SMILES: NCCN(Cc1ccc(CNCc2ccccn2)cc1)C1CCCc2cccnc21 (centres unmarked) [Example 31, N-(2-pyridinylmethyl)-N′-(2-aminoethyl)-N′-(5,6,7,8-tetrahydro-8-quinolinyl)-1,4-benzenedimethanamine]
- inhibition at 20 µg/mL [1]: > 20%

SMILES: c1ccc(CN(Cc2ccc(CNCc3ccccn3)cc2)C2CCCc3cccnc32)cc1 (centres unmarked) [Example 60, N-(2-pyridinylmethyl)-N′-(phenylmethyl)-N′-(5,6,7,8-tetrahydro-8-quinolinyl)-1,4-benzenedimethanamine]
- inhibition at 20 µg/mL [1]: > 20%

SMILES: NCC(=O)N(Cc1ccc(CNCc2ccccn2)cc1)C1CCCc2cccnc21 (centres unmarked) [Example 72, N-[[4-[[(2-pyridinylmethyl)amino]methyl]phenyl]methyl]-N-(5,6,7,8-tetrahydro-8-quinolinyl)-glycinamide]
- inhibition at 20 µg/mL [1]: > 20%

SMILES: O=C(c1cnccn1)N(Cc1ccc(CNCc2ccccn2)cc1)C1CCCc2cccnc21 (centres unmarked) [Example 75, N-[[4-[[(2-pyridinylmethyl)amino]methyl]phenyl]methyl]-N-(5,6,7,8-tetrahydro-8-quinolinyl)-pyrazinamide]
- inhibition at 20 µg/mL [1]: > 20%

SMILES: O=C(c1ccccn1)N(Cc1ccc(CNCc2ccccn2)cc1)C1CCCc2cccnc21 (centres unmarked) [Example 79, N-[[4-[[(2-pyridinylmethyl)amino]methyl]phenyl]methyl]-N-(5,6,7,8-tetrahydro-8-quinolinyl)-picolinamide]
- inhibition at 20 µg/mL [1]: > 20%

SMILES: O=C(NC1CCCCc2cccnc21)c1ccc(CNCc2ccccn2)cc1 (centres unmarked) [Example 82, N-(6,7,8,9-tetrahydro-5H-cyclohepta[b]pyridin-9-yl)-4-[[(2-pyridinylmethyl)amino]methyl]benzamide]
- inhibition at 20 µg/mL [1]: > 20%

SMILES: Cc1onc(-c2ccccc2Cl)c1C(=O)N1CCC(N(Cc2cccc(CNCc3ccccn3)c2)Cc2ccccn2)CC1 [Example 98, N,N′-bis(2-pyridinylmethyl)-N-[1-[3-(2-chlorophenyl)-5-methyl-isoxazol-4-oyl]-4-piperidinyl]-1,3-benzenedimethanamine]
- inhibition at 20 µM [1]: > 20%

SMILES: O=C(NN1CCC(N(Cc2ccc(CNCc3ccccn3)cc2)Cc2ccccn2)CC1)c1cccnc1 [Example 131, N-[1-(3-pyridinecarboxamido)-4-piperidinyl]-N,N′-bis(2-pyridinylmethyl)-1,4-benzenedimethanamine]
- inhibition at 20 µM [1]: > 20%

SMILES: Cc1onc(-c2ccccc2Cl)c1C(=O)NN1CCC(N(Cc2ccc(CNCc3ccccn3)cc2)Cc2ccccn2)CC1 [Example 135, N-[1-[3-(2-chlorophenyl)-5-methyl-isoxazol-4-carboxamido]-4-piperidinyl]-N,N′-bis(2-pyridinylmethyl)-1,4-benzenedimethanamine]
- inhibition at 20 µM [1]: > 20%

SMILES: c1ccc(CN2CCC(N(Cc3ccc(CNCc4ccccn4)cc3)Cc3ccccn3)C2)cc1 (centres unmarked) [Example 145, N-[1-(benzyl)-3-pyrrolidinyl]-N,N′-bis(2-pyridinylmethyl)-1,4-benzenedimethanamine]
- inhibition at 20 µM [1]: > 20%

SMILES: CC(C)N1CCC(N(Cc2ccc(CNCc3ccccn3)cc2)Cc2ccccn2)CC1 [Example 147, N-[1-(iso-propyl)-4-piperidinyl]-N,N′-bis(2-pyridinylmethyl)-1,4-benzenedimethanamine]
- inhibition at 20 µM [1]: > 20%

- EC50 (HIV-1 NL4.3 or IIIB; [2]): < 20 µM
SMILES: Oc1cccc2ccc(CN(Cc3ccc(CNCc4ccccn4)cc3)C3CCCCc4cccnc43)nc12 (centres unmarked) [Example 157, N-[(8-hydroxy)-2-quinolylmethyl]-N′-(2-pyridinylmethyl)-N-(6,7,8,9-tetrahydro-5H-cyclohepta[b]pyridin-9-yl)-1,4-benzenedimethanamine]

- EC50 (HIV-1 NL4.3 or IIIB; [2]): < 20 µM
SMILES: c1ccc(CNCc2ccc(CN(Cc3ccc4ccccc4n3)C3CCCCc4cccnc43)cc2)nc1 (centres unmarked) [Example 158, N-(2-quinolylmethyl)-N′-(2-pyridinylmethyl)-N-(6,7,8,9-tetrahydro-5H-cyclohepta[b]pyridin-9-yl)-1,4-benzenedimethanamine]

SMILES: CCCCN1CCC(N(CCc2ccccn2)Cc2cccc(CNCc3ccccn3)c2)CC1 [Example 177, N-[1-butyl-4-piperidinyl]-N-[2-(2-pyridinyl)ethyl]-N′-(2-pyridinylmethyl)-1,3-benzenedimethanamine]
- inhibition at 20 µM [1]: > 20%

SMILES: O=C(c1ccccc1)N1CCC(N(CCc2ccccn2)Cc2cccc(CNCc3ccccn3)c2)CC1 [Example 178, N-[1-benzoyl-4-piperidinyl]-N-[2-(2-pyridinyl)ethyl]-N′-(2-pyridinylmethyl)-1,3-benzenedimethanamine]
- inhibition at 20 µM [1]: > 20%

SMILES: Cn1cc(CN(CCc2ccccn2)Cc2cccc(CNCc3ccccn3)c2)c2ccccc21 [Example 180, N-[(1-methyl)benzo[b]pyrrol-3-ylmethyl]-N-[2-(2-pyridinyl)ethyl]-N′-(2-pyridinylmethyl)-1,3-benzenedimethanamine]
- inhibition at 20 µM [1]: > 20%

SMILES: c1ccc(CN2CCC(N(CCc3ccccn3)Cc3ccc(CNCc4ccccn4)cc3)CC2)cc1 [Example 182, N-[1-(benzyl)-4-piperidinyl]-N-[2-(2-pyridinyl)ethyl]-N′-(2-pyridinylmethyl)-1,4-benzenedimethanamine]
- inhibition at 20 µM [1]: > 20%

SMILES: Cn1c(CN(CCc2ccccn2)Cc2ccc(CNCc3ccccn3)cc2)nc2ccccc21 [Example 183, N-[1-methylbenzimidazol-2-ylmethyl]-N-[2-(2-pyridinyl)ethyl]-N′-(2-pyridinylmethyl)-1,4-benzenedimethanamine]
- inhibition at 20 µM [1]: > 20%

SMILES: c1ccc(-c2[nH]c3ccccc3c2CN(CCc2ccccn2)Cc2ccc(CNCc3ccccn3)cc2)cc1 [Example 184, N-[(2-phenyl)benzo[b]pyrrol-3-ylmethyl]-N-[2-(2-pyridinyl)ethyl]-N′-(2-pyridinylmethyl)-1,4-benzenedimethanamine]
- inhibition at 20 µM [1]: > 20%
